Several values for one entry are separate records, joined by “and”; a condition that tells them apart may be missing. Equal entries are not always repeated.
Biological target: T1, full-length TcPINK1 (1–570) (Tribolium castaneum, UniProt D6WMX4)
T1 construct: Kinetics of phosphorylation of PINKtide and indicated variants by full-length TcPINK1 (1–570); made in house; host or cells: E. coli BL21 Codon+
T1 sequence (D6WMX4 1-570): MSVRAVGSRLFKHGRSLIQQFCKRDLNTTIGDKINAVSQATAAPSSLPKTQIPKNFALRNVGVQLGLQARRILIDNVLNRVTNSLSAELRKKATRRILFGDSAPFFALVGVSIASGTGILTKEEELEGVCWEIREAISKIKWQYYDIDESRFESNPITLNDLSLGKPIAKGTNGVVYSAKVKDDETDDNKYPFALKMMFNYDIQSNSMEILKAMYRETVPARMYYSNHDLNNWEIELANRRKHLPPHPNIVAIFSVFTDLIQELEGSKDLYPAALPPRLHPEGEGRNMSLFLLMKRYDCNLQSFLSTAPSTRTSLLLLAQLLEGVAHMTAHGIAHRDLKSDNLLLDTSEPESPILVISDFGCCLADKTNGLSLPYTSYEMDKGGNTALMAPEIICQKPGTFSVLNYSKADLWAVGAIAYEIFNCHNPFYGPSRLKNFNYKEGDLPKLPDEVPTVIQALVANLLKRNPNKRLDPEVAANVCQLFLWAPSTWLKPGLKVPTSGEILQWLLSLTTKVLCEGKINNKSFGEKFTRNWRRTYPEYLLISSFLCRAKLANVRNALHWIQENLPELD
Assay: Peptide substrate kinase assay: phosphorylation of PINKtide and variants, [γ-32P] ATP, P81 paper
Format: biochemical
Conditions: phosphorylation of the peptide substrate by full-length TcPINK1 (1–570), kinase 1 µM, 0.1 mM [γ-32P] ATP, 30°C, n.d. = peptide phosphorylated poorly, kinetic values not determinable; for Km: 10 mM MgCl2, 50 mM Tris–HCl pH 7.5, 30 min, nonlinear regression (GraphPad Prism), similar results in at least two experiments; for Vmax: 30 min, 1 U = incorporation of 1 nmol of ATP into substrate, nonlinear regression
Procedure: For assays using peptide substrates, assays were set up in a volume of 50 µl, with all kinases at 1 µM and peptide substrates at the indicated concentrations in 50 mM Tris–HCl (pH 7.5), 0.1 mM EGTA, 10 mM MgCl2, 2 mM dithiothreitol and 0.1 mM [γ-^32P] ATP. Assays were incubated for 30 min at 30°C with shaking at 1200 r.p.m., and terminated by spotting of 40 µl of the reaction mixture onto P81 phosphocellulose paper and washing in 50 mM phosphoric acid. After extensive further washing, incorporation of [γ-^32P] ATP into substrates was quantified by Cerenkov counting. For MBP assays using P81 paper, 5 µg of MBP was used.
One unit of TcPINK1 activity was defined as the amount of enzyme that catalysed the incorporation of 1 nmol of ATP into a given substrate. Km and Vmax values were determined by analysing the phosphorylation of PINKtide and its variants at various concentrations. Km and Vmax values were calculated using the GRAPHPAD PRISM program.

| Substance | Km | Vmax [U mg^−1] |
| --- | --- | --- |
| KKWIpTRRSPRRR [PINKtide variant at the −3 position] | 970 µM | 8 |
| KKWIERRSPRRR [PINKtide variant at the −3 position] | 36 µM | 2 |
| KKWISRRSPRRR [PINKtide variant at the −3 position] | 81 µM | 3 |
| KKEIpYRRSPRRR [PINKtide variant at the −5 position] | 192 µM | 6 |
| KKKIpYRRSPRRR [PINKtide variant at the −5 position] | 165 µM | 2 |
| KKLIpYRRSPRRR [PINKtide variant at the −5 position] | 381 µM | 5 |
| KKAIpYRRSPRRR [PINKtide variant at the −5 position] | 435 µM | 8 |
| KKWITRRSPRRR [PINKtide variant at the −3 position] | 278 µM | 3 |
| KKFIpYRRSPRRR [PINKtide variant at the −5 position] | 163 µM | 3 |
| KKWIYRRSPRRR [PINKtide variant at the −3 position] | 30 µM | 3 |
| KKWIKRRSPRRR [PINKtide variant at the −3 position] | 50 µM | 1 |
| KKWIpSRRSPRRR [PINKtide variant at the −3 position] | 117 µM | 3 |
| KKWIFRRSPRRR [PINKtide variant at the −3 position] | 63 µM | 2 |
| KKWIpYRRSPRRR [PINKtide, optimal peptide substrate for TcPINK1, KKWIpYRRSPRRR] | 493 µM and ~500 µM | – |
| KKWIpYRRTPRRR [PINKtide variant, phosphorylated Ser changed to Thr] | 756 µM | 8 |
